PubChem BioAssay AID1963829 (Molecular Pharmacology Branch, DTP, NCI, 2024)

Tested on: 935938-334-R-J1-PDC complex spheroid viability
Test: Anticancer human tumor 935938-334-R-J1-PDC patient-derived small intestine adenocarcinoma cell line growth inhibition [POLQ]
Conditions: for IC50: curve of first compound; for viability, T/C: stronger effect = lower value
Description: Multicellular complex tumor spheroid response to Polymerase (POL) inhibitors (novobiocin, ART-558, RP6685) in combination with a variety of drugs and investigational agents in selected tumor cell lines
The POL inhibitors (novobiocin, ART-558, and RP6685) were evaluated both individually and in combination with standard of care and investigational anticancer small molecules within a complex spheroid model of solid tumors. . Complex spheroids include a stromal component modeled by human endothelial cells (HUVEC) and fibroblasts modeled by human mesenchymal stem cells (MSCs). The concentration ranges selected for each drug and investigational agent were based upon clinically achievable concentrations if the clinical Cmax of the agent was known.
Compounds. The drugs and investigational agents: novobiocin (NSC847541), ART-558 (NSC835418), RP-6685 (NSC848927), peposertib (NSC802822), ceralasertib (NSC780249), elimusertib (NSC800525), camonsertib (NSC841442), AZD-1390 (NSC803789), olaparib (NSC753686), talazoparib (NSC767125), rucaparib (NSC756644), sotorasib (NSC818433), MRTX-1133 (NSC836407), SN-38 (NSC673596), topotecan (NSC609699), epotoside (NSC141540), doxorubicin (NSC123127), gemcitabine (NSC613327), 5-fluorouracil (NSC19893), paclitaxel (NSC125973), vemurafenib (NSC761431), MSA-2 (NSC828583), SN-011 (NSC837082), adavosertib (NSC754352), prexasertib (NSC758257), carboplatin (NSC241240) and oxaliplatin (NSC266046), were obtained from the National Cancer Institute (NCI) Developmental Therapeutics Program Chemical Repository (21). The FDA-approved anticancer drug set is available from the Developmental Therapeutics Program at https://dtp.cancer.gov/organization/dscb/obtaining/. […] The stock solutions were prepared in dimethyl sulfoxide (DMSO, Sigma-Aldrich, St. Louis, MO, cat. D2650), except for the platinum compounds which were prepared in saline (Quality Biological, Gaithersburg, MD, cat. 114-055-101), at 800-fold the tested concentration and stored at -70 degrees C prior to their use. All drugs and investigational agents were tested over a range starting from a high concentration at or near the clinical Cmax and decreasing in half-log increments. If the clinical Cmax for an agent had not been determined, the highest concentration tested was 10 microM, except for SN-38, which was tested at a high concentration of 1 microM.
Cell Culture. All cells were maintained in an incubator at 37 degrees C and 5% CO2 with 95% humidity. The PDC lines were cultured according to standard operating procedures established by the NCI PDMR (https://pdmr.cancer.gov). Table 3 of the manuscript, lists the cell lines along with the number of the three cell types plated to form the mct-spheroids and media for tumor cell growth. After thawing, all PDC lines, except 997537-175-T-J1-PDC and 415267-285-R-J2-PDC, were cultured in Matrigel-coated flasks prepared with a working solution of 1X Ham's F-12 nutrient mix, without supplementation (Thermo Fisher Scientific, cat. 11765054), 100 U/mL penicillin-streptomycin (Thermo Fisher Scientific, cat. 15140122), and 2.5% Matrigel (Corning Inc., Corning, NY, cat. 354248) for the first three passages. The two PDC lines 997537-175-T-J1-PDC and 415267-285-R-J2-PDC were cultured on uncoated flasks. The 857933-349-R-J2-PDC line was cultured in 6C/Colon 1B media containing advanced DMEM/F-12 (Thermo Fisher Scientific, cat. 12634028), 10 mM HEPES (Thermo Fisher Scientific, cat. 15630080), 1X GlutaMAX supplement (Thermo Fisher Scientific, cat. 35050061), 0.1 mg/mL primocin (InvivoGen, San Diego, CA, cat. ant-pm-2), 10% defined fetal bovine serum, heat inactivated (HyClone Laboratories Inc., Logan, UT, cat. SH30070.03HI), 50% L-WRN conditioned media (ATCC, cat. CRL-3276), 1.25 mM N-Acetyl-L-cysteine (Sigma-Aldrich, cat. A9165), 10 mM nicotinamide (Sigma-Aldrich, cat. N0636), 1X B-27 supplement (Thermo Fisher Scientific, cat. 17504044), 1X N-2 supplement (Thermo Fisher Scientific, cat. […]

[1] = second compound 0.0316 µM, first compound 0.0316 µM
[2] = second compound 0.0316 µM, first compound 0.1 µM
[3] = second compound 0.1 µM, first compound 0.0316 µM
[4] = second compound 0.1 µM, first compound 0.1 µM
[5] = second compound 0.316 µM, first compound 0.0316 µM
[6] = second compound 0.316 µM, first compound 0.1 µM
[7] = second compound 1 µM, first compound 0.0316 µM
[8] = second compound 1 µM, first compound 0.1 µM
[9] = second compound 3.16 µM, first compound 0.0316 µM
[10] = second compound 3.16 µM, first compound 0.1 µM
[11] = second compound 10 µM, first compound 0.0316 µM
[12] = second compound 10 µM, first compound 0.1 µM
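Also: spheroids exposed to drugs for seven days before viability read.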
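For viability, T/C in this document: 100% = DMSO vehicle control wells.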

SMILES: CC1COCCN1c1cc(-c2ccnn2C)c2ccnc(-c3ccn[nH]3)c2n1 (centres undefined) + COC1C(OC(N)=O)C(O)C(Oc2ccc3c(O)c(NC(=O)c4ccc(O)c(CC=C(C)C)c4)c(=O)oc3c2C)OC1(C)C
- IC50 (second compound 0.0316 µM): 72.7 nM
- IC50 (second compound 0.1 µM): 59.2 nM
- IC50 (second compound 0.316 µM): 136 nM
- IC50 (second compound 1 µM): 51.2 nM
- IC50 (second compound 3.16 µM): 93 nM
- IC50 (second compound 10 µM): 80.8 nM
- viability, T/C [1]: 73.1%
- viability, T/C [2]: 41%
- viability, T/C (second compound 0.0316 µM, first compound 0.316 µM): 20.7%
- viability, T/C (second compound 0.0316 µM, first compound 1 µM): 13.7%
- viability, T/C (second compound 0.0316 µM, first compound 3.16 µM): 13.8%
- viability, T/C (second compound 0.0316 µM, first compound 10 µM): 16.3%
- viability, T/C [3]: 66.6%
- viability, T/C [4]: 36%
- viability, T/C (second compound 0.1 µM, first compound 0.316 µM): 20.7%
- viability, T/C (second compound 0.1 µM, first compound 1 µM): 14.3%
- viability, T/C (second compound 0.1 µM, first compound 3.16 µM): 16.4%
- viability, T/C (second compound 0.1 µM, first compound 10 µM): 19.7%
- viability, T/C [5]: 73.1%
- viability, T/C [6]: 61%
- viability, T/C (second compound 0.316 µM, first compound 0.316 µM): 19.9%
- viability, T/C (second compound 0.316 µM, first compound 1 µM): 15%
- viability, T/C (second compound 0.316 µM, first compound 3.16 µM): 18%
- viability, T/C (second compound 0.316 µM, first compound 10 µM): 21.3%
- viability, T/C [7]: 59.7%
- viability, T/C [8]: 36.5%
- viability, T/C (second compound 1 µM, first compound 0.316 µM): 18.8%
- viability, T/C (second compound 1 µM, first compound 1 µM): 14.9%
- viability, T/C (second compound 1 µM, first compound 3.16 µM): 14.8%
- viability, T/C (second compound 1 µM, first compound 10 µM): 20.3%
- viability, T/C [9]: 78.9%
- viability, T/C [10]: 48%
- viability, T/C (second compound 3.16 µM, first compound 0.316 µM): 19.4%
- viability, T/C (second compound 3.16 µM, first compound 1 µM): 15%
- viability, T/C (second compound 3.16 µM, first compound 3.16 µM): 18.9%
- viability, T/C (second compound 3.16 µM, first compound 10 µM): 16.1%
- viability, T/C [11]: 74.9%
- viability, T/C [12]: 44.1%
- viability, T/C (second compound 10 µM, first compound 0.316 µM): 24.4%
- viability, T/C (second compound 10 µM, first compound 1 µM): 14.4%
- viability, T/C (second compound 10 µM, first compound 3.16 µM): 14.7%
- viability, T/C (second compound 10 µM, first compound 10 µM): 20.7%

SMILES: CC[C@@]1(O)C(=O)OCc2c1cc1n(c2=O)Cc2cc3c(CN(C)C)c(O)ccc3nc2-1 + Cc1cccc(N(C)C(=O)C2C(O)CCN2c2nc(C)cc(C(F)(F)F)c2C#N)c1
- IC50 (second compound 0.0316 µM): > 100 nM
- IC50 (second compound 0.1 µM): > 100 nM
- IC50 (second compound 0.316 µM): > 100 nM
- IC50 (second compound 1 µM): 91.8 nM
- IC50 (second compound 3.16 µM): > 100 nM
- IC50 (second compound 10 µM): > 100 nM
- viability, T/C (second compound 0.0316 µM, first compound 0.000316 µM): 123%
- viability, T/C (second compound 0.0316 µM, first compound 0.001 µM): 111%
- viability, T/C (second compound 0.0316 µM, first compound 0.00316 µM): 95.1%
- viability, T/C (second compound 0.0316 µM, first compound 0.01 µM): 90.4%
- viability, T/C [1]: 70.6%
- viability, T/C [2]: 69.2%
- viability, T/C (second compound 0.1 µM, first compound 0.000316 µM): 105%
- viability, T/C (second compound 0.1 µM, first compound 0.001 µM): 113%
- viability, T/C (second compound 0.1 µM, first compound 0.00316 µM): 109%
- viability, T/C (second compound 0.1 µM, first compound 0.01 µM): 128%
- viability, T/C [3]: 68.5%
- viability, T/C [4]: 82.7%
- viability, T/C (second compound 0.316 µM, first compound 0.000316 µM): 112%
- viability, T/C (second compound 0.316 µM, first compound 0.001 µM): 102%
- viability, T/C (second compound 0.316 µM, first compound 0.00316 µM): 118%
- viability, T/C (second compound 0.316 µM, first compound 0.01 µM): 88%
- viability, T/C [5]: 89.9%
- viability, T/C [6]: 51.2%
- viability, T/C (second compound 1 µM, first compound 0.000316 µM): 126%
- viability, T/C (second compound 1 µM, first compound 0.001 µM): 115%
- viability, T/C (second compound 1 µM, first compound 0.00316 µM): 92.9%
- viability, T/C (second compound 1 µM, first compound 0.01 µM): 111%
- viability, T/C [7]: 79.9%
- viability, T/C [8]: 46.3%
- viability, T/C (second compound 3.16 µM, first compound 0.000316 µM): 101%
- viability, T/C (second compound 3.16 µM, first compound 0.001 µM): 92.9%
- viability, T/C (second compound 3.16 µM, first compound 0.00316 µM): 112%
- viability, T/C (second compound 3.16 µM, first compound 0.01 µM): 112%
- viability, T/C [9]: 68.4%
- viability, T/C [10]: 54%
- viability, T/C (second compound 10 µM, first compound 0.000316 µM): 97%
- viability, T/C (second compound 10 µM, first compound 0.001 µM): 95.3%
- viability, T/C (second compound 10 µM, first compound 0.00316 µM): 84.7%
- viability, T/C (second compound 10 µM, first compound 0.01 µM): 84.5%
- viability, T/C [11]: 101%
- viability, T/C [12]: 55.2%
